In US20250302972A1, “FORMULATION” (ENA Respiratory Pty Ltd, priority 2021, published 2025):
Several values for one entry are separate records, joined by “and”; a condition that tells them apart may be missing. Equal values may be shown once.

Experiments:
human TLR2 (hTLR2) = molecular target: T1, human TLR2 (hTLR2) (Homo sapiens, UniProt O60603); experiment: Activation of human TLR2 II: HEK-BLUE-hTLR2 SEAP reporter assay; format: cell-based
T1 construct: host or cells: HEK293 (HEK-BLUE-hTLR2)

human TLR2 = molecular target: T2, human TLR2 (Homo sapiens, UniProt O60603); experiment: HEK-Blue hTLR2 Dose Response (NF-κB SEAP reporter); format: cell-based
T2 construct: expressed in transfected cells; host or cells: HEK-Blue hTLR2
T2 sequence (O60603 21-784): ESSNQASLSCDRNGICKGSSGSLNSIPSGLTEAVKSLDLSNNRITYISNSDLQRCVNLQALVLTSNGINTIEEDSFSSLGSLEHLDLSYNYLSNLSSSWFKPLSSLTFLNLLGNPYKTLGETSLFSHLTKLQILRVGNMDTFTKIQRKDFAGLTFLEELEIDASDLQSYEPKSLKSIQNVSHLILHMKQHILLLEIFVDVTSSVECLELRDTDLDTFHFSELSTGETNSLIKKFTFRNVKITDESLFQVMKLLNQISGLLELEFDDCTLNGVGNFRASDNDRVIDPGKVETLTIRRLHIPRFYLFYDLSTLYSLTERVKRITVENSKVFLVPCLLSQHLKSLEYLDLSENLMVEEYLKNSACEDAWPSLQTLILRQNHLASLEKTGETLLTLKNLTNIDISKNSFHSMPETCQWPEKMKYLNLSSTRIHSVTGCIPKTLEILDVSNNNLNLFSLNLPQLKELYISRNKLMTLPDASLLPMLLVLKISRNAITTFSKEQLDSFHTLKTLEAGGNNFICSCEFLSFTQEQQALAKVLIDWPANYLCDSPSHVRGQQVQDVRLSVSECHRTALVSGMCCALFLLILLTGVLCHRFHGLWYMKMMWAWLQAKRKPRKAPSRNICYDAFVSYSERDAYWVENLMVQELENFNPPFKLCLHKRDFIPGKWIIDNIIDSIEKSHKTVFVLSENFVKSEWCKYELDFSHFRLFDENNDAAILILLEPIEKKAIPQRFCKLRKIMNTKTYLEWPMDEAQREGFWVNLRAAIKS
T2 sequence (Q9Y2C9 32-796 partner): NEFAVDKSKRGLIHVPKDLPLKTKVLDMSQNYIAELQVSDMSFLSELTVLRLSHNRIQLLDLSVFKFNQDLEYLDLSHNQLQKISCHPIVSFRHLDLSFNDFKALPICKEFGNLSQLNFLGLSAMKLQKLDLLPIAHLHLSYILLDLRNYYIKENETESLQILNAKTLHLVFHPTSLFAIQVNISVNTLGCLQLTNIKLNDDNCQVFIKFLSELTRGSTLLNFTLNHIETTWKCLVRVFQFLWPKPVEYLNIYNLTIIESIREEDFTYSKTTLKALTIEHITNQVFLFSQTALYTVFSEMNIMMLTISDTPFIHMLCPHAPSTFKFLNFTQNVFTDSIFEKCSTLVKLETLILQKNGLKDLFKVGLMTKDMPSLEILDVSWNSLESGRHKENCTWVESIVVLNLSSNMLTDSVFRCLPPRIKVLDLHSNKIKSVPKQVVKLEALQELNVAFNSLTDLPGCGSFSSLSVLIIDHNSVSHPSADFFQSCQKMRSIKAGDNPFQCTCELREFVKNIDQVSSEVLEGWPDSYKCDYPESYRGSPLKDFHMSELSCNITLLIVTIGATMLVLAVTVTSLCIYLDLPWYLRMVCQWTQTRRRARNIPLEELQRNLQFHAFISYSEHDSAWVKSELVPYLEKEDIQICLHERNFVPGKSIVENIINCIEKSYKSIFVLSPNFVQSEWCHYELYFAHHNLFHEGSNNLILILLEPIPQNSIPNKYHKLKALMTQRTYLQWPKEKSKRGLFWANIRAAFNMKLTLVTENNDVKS
Experimental: (§1) Toll-Like Receptor (TLR) stimulation is tested by assessing NF-κB activation in the TLR expressing cell lines. HEK-Blue h/mTLR2 cells have been stably transfected with human or mouse TLR2 and CD14. The activity of the test articles are tested on human and mouse TLR2, as potential agonists. The test articles are evaluated at seven concentrations and compared to control ligands (see list below). These steps are performed in triplicate.
[…] Starting from the 5 μg/mL working stock, a series of six 1:4 serial dilutions were made by mixing 100 μL of the previous highest dilution with 300 μL sterile PBS.
(§2) The secreted embryonic alkaline phosphatase (SEAP) reporter is under the control of a promoter inducible by the transcription factor NF-κB. This reporter gene allows the monitoring of signaling through the TLR, based on the activation of NF-κB. In a 96-well plate (200 μL total volume) containing the appropriate cells (50,000-75,000 cells/well), 20 μL of the test article or the positive control ligand (HKLC) is added to the wells. The media added to the wells is designed for the detection of NF-κB induced SEAP expression. After a 16-24-hour incubation the optical density (OD) is read at 650 nm on a Molecular Devices SpectraMax 340PC absorbance detector.

mouse TLR2 = molecular target: T3, mouse TLR2 (Mus musculus, UniProt Q9QUN7); experiment: HEK-Blue mTLR2 Dose Response (NF-κB SEAP reporter); format: cell-based
T3 construct: expressed in transfected cells; host or cells: HEK-Blue mTLR2
T3 sequence (Q9QUN7 25-784): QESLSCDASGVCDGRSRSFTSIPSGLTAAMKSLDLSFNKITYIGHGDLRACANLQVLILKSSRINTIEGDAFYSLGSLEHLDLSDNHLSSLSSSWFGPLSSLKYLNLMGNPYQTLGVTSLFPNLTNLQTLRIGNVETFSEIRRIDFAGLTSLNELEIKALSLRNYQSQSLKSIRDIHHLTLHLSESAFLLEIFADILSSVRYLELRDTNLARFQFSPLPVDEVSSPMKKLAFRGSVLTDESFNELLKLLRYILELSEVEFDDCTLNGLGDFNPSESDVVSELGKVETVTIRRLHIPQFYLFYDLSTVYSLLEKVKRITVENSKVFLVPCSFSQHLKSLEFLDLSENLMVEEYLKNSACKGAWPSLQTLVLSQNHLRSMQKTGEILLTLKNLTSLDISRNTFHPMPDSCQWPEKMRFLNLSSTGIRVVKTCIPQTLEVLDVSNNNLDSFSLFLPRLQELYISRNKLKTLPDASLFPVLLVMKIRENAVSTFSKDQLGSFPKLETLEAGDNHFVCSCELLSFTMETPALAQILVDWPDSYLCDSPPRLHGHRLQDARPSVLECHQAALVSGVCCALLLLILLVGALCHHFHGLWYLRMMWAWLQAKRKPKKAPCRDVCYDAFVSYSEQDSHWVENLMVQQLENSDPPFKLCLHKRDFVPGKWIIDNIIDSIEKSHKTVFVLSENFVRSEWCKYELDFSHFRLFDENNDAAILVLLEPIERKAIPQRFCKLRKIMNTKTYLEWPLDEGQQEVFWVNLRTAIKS
T3 sequence (Q9Y2C9 32-796 partner): as the sequence (Q9Y2C9 32-796 partner) above
Experimental: as §1
A 5 μg/mL working stock was then prepared for each compound from the 20 μg/mL dilution in sterile PBS. Starting from the 5 μg/mL working stock, a series of six 1:4 serial dilutions were made by mixing 100 μL of the previous highest dilution with 300 μL sterile PBS.
as §2

HEK-Blue Null2 cells = experiment: HEK-Blue Null2 control cell line (control for mouse TLR2); format: cell-based; settings: TLR2-free control cells
Experimental: as §2

HEK-Blue Null1 cells = experiment: HEK-Blue Null1 control cell line (control for human TLR2); format: cell-based; settings: TLR2-free control cells
Experimental: as §2

[1] = Stability IV: formulation pH at each time point; format: physicochemical
Experimental: Each compound was formulated in 0.9% w/w saline with addition of 0.1% w/w EDTA at about pH 5. The formulations were stored in the dark under accelerated conditions (40° C./75% RH) and reference formulations were stored at −80° C. At days 0, 9 and 28, samples were analysed by UHPLC and pH was measured.
The remaining ˜1 mL of solution in the clear glass HPLC vials was stored at 40° C./75% RH and was used to measure pH at each time point.
The formulation pH data recorded at each time point are compiled in Table 19. There was a general trend for the pH to increase with time but the effect was not pronounced.

T1 sequence (O60603 21-784): as the sequence (O60603 21-784) above
T1 sequence (Q9Y2C9 32-796 partner): as the sequence (Q9Y2C9 32-796 partner) above

optical density (650 nm), screenings 1-3 (human TLR2 (hTLR2); 0.1 ng/mL): 0.182 and 0.206 and 0.197 | optical density (650 nm), screenings 1-3 (human TLR2 (hTLR2); 0.31 ng/mL): 0.126 and 0.115 | optical density (650 nm), screenings 1-3 (human TLR2 (hTLR2); 0.5 ng/mL): 0.719 and 0.594 and 0.617 | optical density (650 nm), screenings 1-3 (human TLR2 (hTLR2); 2.0 ng/mL): 1.660 and 1.529 and 1.498 | optical density (650 nm), screenings 1-3 (human TLR2 (hTLR2); 7.8 ng/mL): 2.214 and 2.163 | optical density (650 nm), screenings 1-3 (human TLR2 (hTLR2); 31.3 ng/mL): 2.438 and 2.327 and 2.350 | optical density (650 nm), screenings 1-3 (human TLR2 (hTLR2); 125 ng/mL): 2.451 and 2.411 and 2.467 | optical density (650 nm), Average (human TLR2; 0.12 pg/mL): 0.740 | optical density (650 nm), screenings 1-3 (human TLR2; 0.12 pg/mL): 0.653 and 0.759 and 0.809 | optical density (650 nm), Average (human TLR2; 0.49 pg/mL): 1.479 | optical density (650 nm), screenings 1-3 (human TLR2; 0.49 pg/mL): 1.409 and 1.507 and 1.521 | optical density (650 nm), Average (human TLR2; 1.95 pg/mL): 1.823 | optical density (650 nm), screenings 1-3 (human TLR2; 1.95 pg/mL): 1.795 and 1.757 and 1.916 | optical density (650 nm), Average (human TLR2; 7.81 pg/mL): 2.260 | optical density (650 nm), screenings 1-3 (human TLR2; 7.81 pg/mL): 2.288 and 2.168 and 2.323 | optical density (650 nm), Average (human TLR2; 31.25 pg/mL): 2.481 | optical density (650 nm), screenings 1-3 (human TLR2; 31.25 pg/mL): 2.440 and 2.485 and 2.518 | optical density (650 nm), Average (human TLR2; 125 pg/mL): 2.521 | optical density (650 nm), screenings 1-3 (human TLR2; 125 pg/mL): 2.569 and 2.508 and 2.487 | optical density (650 nm), Average (human TLR2; 500 pg/mL): 2.611 | optical density (650 nm), screenings 1-3 (human TLR2; 500 pg/mL): 2.717 and 2.590 and 2.526 | stimulatory (agonist) activity for hTLR2 (human TLR2; HEK-Blue hTLR2): possesses stimulatory activity | stimulatory (agonist) activity for mTLR2 (mouse TLR2): possesses stimulatory activity
SMILES: CCCCCCCCCCCCCCC(C)C(=O)OC[C@H](CSC[C@H](N)C(=O)N[C@@H](CO)C(=O)NCCOCCOCCOCCOCCOCCOCCOCCOCCOCCOCCOCCOCCOCCOCCOCCOCCOCCOCCOCCOCCOCCOCCOCCOCCOCCOCCOCCOCCC(=O)NCC(N)=O)OC(=O)C(C)CCCCCCCCCCCCCC (stereo partly shown) [B4]
stimulatory response in HEK-Blue Null2 (mouse) cells (HEK-Blue Null2 cells): not observed | stimulatory response in HEK-Blue Null1 (human) cells (HEK-Blue Null1 cells): not observed | formulation pH ([1]; 0-days): 5.6 | formulation pH ([1]; 9-days, 40° C./75% RH): 5.7 | formulation pH ([1]; 28-days, 40° C./75% RH): 5.7
